Experimental data published in the Deep4Chem optical property database.

Experiment: solvent given as SMILES

COCc1ncc(-c2c3ccccc3c(-c3cnc(COC)nc3)c3ccccc23)cn1
emission maximum (in CCO): 420 nm
emission maximum (in ClCCl): 420 nm

c1ccc(-c2c3c(c(-c4ccccc4)c4cc5ccccc5cc24)Cc2c(c(-c4ccccc4)c4cc5ccccc5cc4c2-c2ccccc2)C3)cc1
emission maximum (in CC#N): 400 nm
emission maximum (in CCCCCC): 396 nm
emission maximum (in CO): 398 nm
emission maximum (in Cc1ccccc1): 402 nm
emission maximum (in ClCCl): 402 nm

CCOC(=O)c1c(-c2cc3ccccc3oc2=O)nn(-c2ccc(Br)cc2)c1C(=O)OCC
emission maximum (in ClCCl): 400 nm

CCOC(=O)c1ccccc1-c1c2ccc(=[N+](CC)CC)cc-2oc2c1c(=O)oc1cc3c(cc12)CCCN3C
emission maximum (in CCO): 658 nm
emission maximum (in ClC(Cl)Cl): 647 nm
emission maximum (in O): 666 nm

CCOC(=O)c1sc(SC)c2c(=O)n(C)nnc12
emission maximum (in C1CCOC1): 470 nm
emission maximum (in CC#N): 484 nm
emission maximum (in CCO): 501 nm
emission maximum (in CN(C)C=O): 487 nm
emission maximum (in CO): 508 nm
emission maximum (in CS(C)=O): 501 nm

c1ccc(N(c2ccccc2)c2c3ccccc3cc3ccccc23)cc1
emission maximum (in Cc1ccccc1): 489 nm

COc1cc(OC)cc(-c2ccc(C3=CC(c4ccccc4)=C(c4ccccc4)C3)cc2)c1
emission maximum (in ClCCl): 455 nm

CCOC(=O)c1ccccc1-c1c2ccc(=[N+](CC)CC)cc-2oc2cc(N(CC)CC)ccc12
emission maximum (in CC#N): 581 nm
emission maximum (in CCO): 571 nm
emission maximum (in CN(C)C=O): 585 nm
emission maximum (in O): 581 nm

Cc1cc(C)c(N(c2ccccc2)c2ccc(S(=O)(=O)c3ccc(S(=O)(=O)c4ccc(N(c5ccccc5)c5c(C)cc(C)cc5C)cc4)cc3)cc2)c(C)c1
emission maximum (in Cc1ccccc1): 450 nm
emission maximum (in c1cc(-n2c3ccccc3c3ccccc32)nc(-n2c3ccccc3c3ccccc32)c1): 452.12 nm

O=C1c2ccccc2C(=O)C1C1C(=O)c2c3ccccc3cc3cc4ccccc4c1c23 (stereo unspecified)
emission maximum (in C1CCOC1): 569 nm
emission maximum (in CC#N): 591 nm
emission maximum (in CCCCCC): 538 nm
emission maximum (in Cc1ccccc1): 563 nm
emission maximum (in ClCCl): 583 nm

CCn1c2cc(-c3cccs3)ccc2c2ccc(-c3cccs3)cc21
emission maximum (in ClCCl): 391 nm

COc1ccccc1-c1nc(-c2ccccc2)c2ccccn12
emission maximum (in C1CCCCC1): 477 nm
emission maximum (in CC#N): 479 nm
emission maximum (in CO): 475 nm
emission maximum (in ClCCl): 479 nm
emission maximum (in O): 481 nm

COc1ccc(C2=N/C(=C\c3ccccc3)C(=O)O2)cc1OC
emission maximum (in C1COCCO1): 447 nm

COc1ccc(-c2cc3c4c(c2)CCc2cc(-c5ccc(OC)cc5)cc(c2-4)CC3)cc1
emission maximum (in C1CCCCC1): 386.34 nm
emission maximum (in C1CCOC1): 390.22 nm
emission maximum (in CC#N): 388.06 nm
emission maximum (in CCCCCC): 384.62 nm
emission maximum (in CCO): 386.99 nm
emission maximum (in CN(C)C=O): 392.15 nm
emission maximum (in CO): 386.56 nm
emission maximum (in ClC(Cl)Cl): 391.46 nm
emission maximum (in ClCCl): 391.08 nm

CN1C(=O)/C(=C/c2ccncc2)N=C1/C=C/c1ccncc1
emission maximum (in C1COCCO1): 537 nm
emission maximum (in CC#N): 541 nm
emission maximum (in CCO): 545 nm
emission maximum (in CCOC(C)=O): 535 nm
emission maximum (in O): 542 nm

CCCCCCCCCCOc1ccc(C#Cc2cc3c(C#Cc4ccc(OCCCCCCCCCC)cc4)c(C#Cc4ccc(OCCCCCCCCCC)cc4)c4cc(C#Cc5ccc(OCCCCCCCCCC)cc5)cc5c(C#Cc6ccc(OCCCCCCCCCC)cc6)c(C#Cc6ccc(OCCCCCCCCCC)cc6)c(c2)c3c45)cc1
emission maximum (in ClCCl): 466 nm

CCCCC1(c2ccc(OC)cc2)Nc2ccccc2N=C1c1ccc(OC)cc1 (stereo unspecified)
emission maximum (in C1CCOC1): 513 nm
emission maximum (in CC#N): 522 nm
emission maximum (in CCCCCC): 485 nm
emission maximum (in CN(C)C=O): 525 nm
emission maximum (in Cc1ccccc1): 501 nm
emission maximum (in ClC(Cl)Cl): 507 nm

CC(C)(C)c1ccc2c(c1)c1cc(C(C)(C)C)ccc1n2-c1ccc(-c2ccc3c(c2)C(=O)c2ccc(-c4ccc(-n5c6ccc(C(C)(C)C)cc6c6cc(C(C)(C)C)ccc65)cc4)cc2C3=O)cc1
emission maximum (in Cc1ccccc1): 558 nm
emission maximum (in c1ccc2c(c1)c1ccccc1n2-c1ccc(-c2ccc(-n3c4ccccc4c4ccccc43)cc2)cc1): 550 nm

F[B-]1(F)n2c(ccc2-c2cccs2)C(C(F)(F)F)=C2C=CC(c3cccs3)=[N+]21
emission maximum (in CCCCCC): 674 nm

CC(C)(C)c1ccc2oc(-c3ccc(-c4nc5cc(C(C)(C)C)ccc5o4)s3)nc2c1
emission maximum (in C1CCCCC1): 426 nm
emission maximum (in C1CCOC1): 432 nm
emission maximum (in CC1CCCCC1): 426 nm
emission maximum (in CC#N): 432 nm
emission maximum (in CCCCO): 434 nm
emission maximum (in CCO): 434 nm
emission maximum (in CN(C)C=O): 434 nm
emission maximum (in Cc1ccccc1): 434 nm
emission maximum (in Clc1ccccc1Cl): 437 nm
emission maximum (in c1ccccc1): 434 nm

N#Cc1cc(C#N)c(-c2ccc(N(c3ccccc3)c3ccccc3)cc2)cc1-c1ccc(N(c2ccccc2)c2ccccc2)cc1
emission maximum (in Cc1ccccc1): 477 nm

N#Cc1c(C#N)c(-n2c3ccccc3c3ccccc32)c(-n2c3ccccc3c3ccccc32)c(-n2c3ccccc3c3ccccc32)c1-n1c2ccccc2c2ccccc21
emission maximum (in Cc1ccccc1): 525 nm

O=c1c2cc(F)c(N3CCCCC3)cc2sc2cc(N3CCCCC3)c(F)cc12
emission maximum (in CCO): 487 nm

Cc1nc(-c2ccccc2)c2ccccn12
emission maximum (in C1CCCCC1): 475 nm
emission maximum (in CC#N): 467 nm
emission maximum (in CO): 473 nm
emission maximum (in ClCCl): 485 nm
emission maximum (in O): 470 nm

Cc1cn2cc(-c3ccc([N+](=O)[O-])cc3)[n-][n+]2c1
emission maximum (in ClCCl): 575 nm

CCNc1cc2c(cc1C)C(c1ccccc1C(=O)O)=C1CCCC(/C=C/C3=[N+](C)c4ccccc4C3(C)C)=C1O2
emission maximum (in CC#N): 728 nm
emission maximum (in CCO): 721 nm
emission maximum (in CO): 720 nm
emission maximum (in ClC(Cl)Cl): 722 nm

O=c1c2cc(Cl)ccc2[nH]c2ccc(COO)cc12
emission maximum (in O): 425 nm

Cc1nc(-c2cc(F)ccc2O)n2c1CCCC2
emission maximum (in ClCCl): 464 nm

COC(=O)C1=C(C(=O)OC)C2(c3ccccc3-c3c(Br)cc(Br)cc32)C2(/C=C/c3ccc(Cl)cc3)c3cc(OC)c(OC)cc3CCN12 (stereo unspecified)
emission maximum (in ClCCl): 520 nm

COc1cc(N(c2ccccc2)c2ccccc2)ccc1C=C(C#N)C#N
emission maximum (in C1COCCO1): 548 nm
emission maximum (in CC#N): 581 nm
emission maximum (in CC(C)=O): 587 nm
emission maximum (in CCOC(C)=O): 573 nm
emission maximum (in CN(C)C=O): 558 nm
emission maximum (in CO): 562 nm
emission maximum (in Cc1ccccc1): 525 nm
emission maximum (in ClC(Cl)Cl): 567 nm
emission maximum (in ClCCl): 590 nm

COC(=O)C1=C(C(=O)OC)[Se](=O)[C@]23C1=C[C@H](c1ccccc12)c1ccccc13 (stereo partly specified)
emission maximum (in ClCCl): 495 nm

CC1(C)C(/C=C/C2=C(Oc3ccc(CCN=C=S)cc3Cl)C(=C/C=C3/N(CCCS(=O)(=O)[O-])c4ccccc4C3(C)C)/CCC2)=[N+](CCCS(=O)(=O)[O-])c2ccccc21
emission maximum (in CO): 797 nm

COc1ccc2ccccc2c1C1=CC(c2ccccc2)=C(c2ccccc2)C1
emission maximum (in ClCCl): 471 nm

F[B-]1(F)Oc2ccccc2-c2nc(-c3ccccc3)c3ccccc3[n+]21
emission maximum (in Cc1ccccc1): 529 nm

N#Cc1nc(N(Cc2ccccc2Br)Cc2ccccc2Br)c(C#N)nc1N(Cc1ccccc1Br)Cc1ccccc1Br
emission maximum (in ClC(Cl)Cl): 565 nm

COc1ccc(N(c2ccc(C=C(c3ccccc3)c3ccccc3)cc2)c2ccc(OC)cc2)cc1
emission maximum (in Cc1ccccc1): 489 nm

Cc1cc(-n2c3ccccc3c3ccccc32)c(-n2c3ccccc3c3ccccc32)cc1C#N
emission maximum (in c1cc(-c2cccc(-n3c4ccccc4c4ccccc43)c2)cc(-n2c3ccccc3c3ccccc32)c1): 485 nm
emission maximum (in c1ccc2c(c1)c1ccccc1n2-c1ccc2sc3ccc(-n4c5ccccc5c5ccccc54)cc3c2c1): 489 nm
emission maximum (in c1ccc2c(c1)c1ccccc1n2-c1ccc2sc3ccc(-n4c5ccccc5c5cccnc54)cc3c2c1): 495 nm
emission maximum (in c1ccc2c(c1)c1cccnc1n2-c1ccc2sc3ccc(-n4c5ccccc5c5cccnc54)cc3c2c1): 498 nm

COc1cc(OC)c2c(c1)c1c(c3ccc(C(C)(C)C)cc32)=[N+]2C(=Nc3c(-c4cc(OC)c(OC)c(OC)c4)c4c5cc(OC)cc(OC)c5c5cc(C(C)(C)C)ccc5c4n3[B-]2(F)F)C=1c1cc(OC)c(OC)c(OC)c1
emission maximum (in Cc1ccccc1): 809 nm

CCNc1ccc2c(C(F)(F)F)cc(=O)oc2c1
emission maximum (in C1CCC2CCCCC2C1): 420 nm
emission maximum (in C1CCCCC1): 417 nm
emission maximum (in CC1CCCCC1): 417 nm
emission maximum (in CC#N): 485 nm
emission maximum (in CC(C)=O): 485 nm
emission maximum (in CC(C)O): 490 nm
emission maximum (in CCC(C)CC): 415 nm
emission maximum (in CCCC(C)C): 415 nm
emission maximum (in CCCCCC): 417 nm
emission maximum (in CCCCCCO): 490 nm
emission maximum (in CCCCO): 493 nm
emission maximum (in CCO): 500 nm
emission maximum (in CCOC(C)=O): 478 nm
emission maximum (in CO): 500 nm
